Measurements published in patent US12486253B2, “Therapeutics for the degradation of mutant BRAF” (C4 THERAPEUTICS, INC., priority 2021, dated 2025).
Like-named read-outs stand apart in the source and are kept apart here.

Target: BRAF V600E (Homo sapiens, UniProt P15056, V600E)
Assay: HiBiT cellular BRAF^V600E degradation assay
Format: cell-based
Details: for DC50: concentration at which 50% of total cellular BRAF^V600E is degraded; for Emax: read-out: HiBit 24 h Emax
[1] = A375.10 cells, 24 h, residual protein remaining in the cell

Chain of BRAF V600E (P15056 whole entry V600E): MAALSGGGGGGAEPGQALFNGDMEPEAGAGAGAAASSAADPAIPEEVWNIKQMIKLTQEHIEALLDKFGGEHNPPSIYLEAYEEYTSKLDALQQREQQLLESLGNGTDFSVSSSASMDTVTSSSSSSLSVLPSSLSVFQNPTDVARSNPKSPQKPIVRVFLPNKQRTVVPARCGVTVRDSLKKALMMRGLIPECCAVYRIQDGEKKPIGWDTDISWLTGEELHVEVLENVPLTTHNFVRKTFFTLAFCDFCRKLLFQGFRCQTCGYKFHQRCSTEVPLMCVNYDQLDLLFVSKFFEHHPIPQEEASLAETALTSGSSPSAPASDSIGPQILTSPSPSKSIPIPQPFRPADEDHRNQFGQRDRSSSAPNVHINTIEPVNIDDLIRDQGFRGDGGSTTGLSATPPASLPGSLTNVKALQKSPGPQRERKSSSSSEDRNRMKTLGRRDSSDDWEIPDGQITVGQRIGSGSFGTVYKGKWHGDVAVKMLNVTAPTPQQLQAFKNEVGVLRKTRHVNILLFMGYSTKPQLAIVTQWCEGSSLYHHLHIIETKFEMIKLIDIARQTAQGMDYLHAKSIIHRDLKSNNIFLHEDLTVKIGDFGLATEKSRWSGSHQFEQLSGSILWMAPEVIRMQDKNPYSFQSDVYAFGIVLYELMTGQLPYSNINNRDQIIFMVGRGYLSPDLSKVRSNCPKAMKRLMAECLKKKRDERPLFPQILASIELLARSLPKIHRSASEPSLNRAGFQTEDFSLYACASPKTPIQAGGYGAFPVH

DC50 (A375.10 cells, 24 h) [µM]	Emax [1] [%]	Compound	Emax [%]
0.0211	8.44	CC(C)S(=O)(=O)Nc1ccc(F)c(Oc2ccc3ncn([C@H]4COC5(CCN(C(=O)CN6CCC(c7ccc(NC8CCC(=O)NC8=O)cc7F)CC6)CC5)C4)c(=O)c3c2)c1C#N (stereo partly drawn) [Example 61, N-[2-cyano-3-[3-[(3R)-8-[2-[4-[4-[(2,6-dioxopiperidin-3-yl)amino]-2-fluorophenyl]piperidin-1-yl]acetyl]-1-oxa-8-azaspiro[4.5]decan-3-yl]-4-oxoquinazolin-6-yl]oxy-4-fluorophenyl]propane-2-sulfonamide]	
0.00948	15.4	CCN(C)S(=O)(=O)Nc1ccc(F)c(Oc2ccc3ncn([C@H]4COC5(CCN(C(=O)CN6CCC(c7ccc(C8CCC(=O)NC8=O)cc7F)C(F)(F)C6)CC5)C4)c(=O)c3c2)c1C#N (stereo partly drawn) [Example 65, (3R)-3-[6-[2-cyano-3-[[ethyl(methyl)sulfamoyl]amino]-6-fluorophenoxy]-4-oxoquinazolin-3-yl]-8-[2-[4-[4-(2,6-dioxopiperidin-3-yl)-2-fluorophenyl]-3,3-difluoropiperidin-1-yl]acetyl]-1-oxa-8-azaspiro[4.5]decane]	
0.0113	10.2	CCN(C)S(=O)(=O)Nc1ccc(F)c(Oc2ccc3ncn([C@H]4CCC5(CCN(C(=O)CN6CCC(c7ccc(C8CCC(=O)NC8=O)cc7F)C(F)(F)C6)CC5)C4)c(=O)c3c2)c1C#N (stereo partly drawn) [Example 66, 6-[2-cyano-3-[[ethyl(methyl)sulfamoyl]amino]-6-fluorophenoxy]-3-[(3S)-8-[2-[4-[4-(2,6-dioxopiperidin-3-yl)-2-fluorophenyl]-3,3-difluoropiperidin-1-yl]acetyl]-8-azaspiro [4.5]decan-3-yl]-4-oxoquinazoline]	
0.00877	8.05	CCN(C)S(=O)(=O)Nc1ccc(F)c(Oc2ccc3ncn(C4COC5(CCN(C(=O)CN6CCC(c7ccc(NC8CCC(=O)NC8=O)cc7F)CC6)CC5)C4)c(=O)c3c2Br)c1C#N (stereo not drawn) [Example 68, 3-[5-bromo-6-[2-cyano-3-[[ethyl(methyl)sulfamoyl]amino]-6-fluorophenoxy]-4-oxoquinazolin-3-yl]-8-[2-[4-[4-[(2,6-dioxopiperidin-3-yl)amino]-2-fluorophenyl]piperidin-1-yl]acetyl]-1-oxa-8-azaspiro[4.5]decane]	
0.00663	9.52	CCN(C)S(=O)(=O)Nc1ccc(F)c(Oc2ccc3ncn(C4CCC5(CCN(C(=O)CN6CCC(c7ccc(NC8CCC(=O)NC8=O)cc7F)CC6)CC5)C4)c(=O)c3c2Br)c1C#N (stereo not drawn) [Example 69, 5-bromo-6-[2-cyano-3-[[ethyl(methyl)sulfamoyl]amino]-6-fluorophenoxy]-3-[8-[2-[4-[4-[(2,6-dioxopiperidin-3-yl)amino]-2-fluorophenyl]piperidin-1-yl]acetyl]-8-azaspiro[4.5]decan-3-yl]-4-oxoquinazoline]	
0.0277	10.7	CCN(C)S(=O)(=O)Nc1ccc(F)c(Oc2ccc3ncn(C4CCC5(CCN(C(=O)CN6CCC(c7ccc(NC8CCC(=O)NC8=O)cc7F)CC6)CC5)C4)c(=O)c3c2Cl)c1C#N (stereo not drawn) [Example 70, 5-chloro-6-[2-cyano-3-[[ethyl(methyl)sulfamoyl]amino]-6-fluorophenoxy]-3-[8-[2-[4-[4-[(2,6-dioxopiperidin-3-yl)amino]-2-fluorophenyl]piperidin-1-yl]acetyl]-8-azaspiro[4.5]decan-3-yl]-4-oxoquinazoline]	
0.0376	10.5	CCN(C)S(=O)(=O)Nc1ccc(F)c(Oc2ccc3ncn(C4COC5(CCN(C(=O)CN6CCC(c7ccc(NC8CCC(=O)NC8=O)cc7F)CC6)CC5)C4)c(=O)c3c2Cl)c1C#N (stereo not drawn) [Example 71, 3-[5-chloro-6-[2-cyano-3-[[ethyl(methyl)sulfamoyl]amino]-6-fluorophenoxy]-4-oxoquinazolin-3-yl]-8-[2-[4-[4-[(2,6-dioxopiperidin-3-yl)amino]-2-fluorophenyl]piperidin-1-yl]acetyl]-1-oxa-8-azaspiro[4.5]decane]	
0.0399	8.63	CCN(C)S(=O)(=O)Nc1ccc(F)c(Oc2ccc3ncn([C@H]4COC5(CCN(C(=O)CN6CCC(c7ccc(NC8CCC(=O)NC8=O)cc7F)CC6)CC5)C4)c(=O)c3c2F)c1C#N (stereo partly drawn) [Example 72, (3R)-3-[6-[2-cyano-3-[[ethyl(methyl)sulfamoyl]amino]-6-fluorophenoxy]-5-fluoro-4-oxoquinazolin-3-yl]-8-[2-[4-[4-[(2,6-dioxopiperidin-3-yl)amino]-2-fluorophenyl]piperidin-1-yl]acetyl]-1-oxa-8-azaspiro[4.5]decane]	
0.0315	11.6	CCN(C)S(=O)(=O)Nc1ccc(F)c(Oc2ccc3ncn([C@@H]4COC5(CCN(C(=O)CN6CCC(c7ccc(NC8CCC(=O)NC8=O)cc7F)CC6)CC5)C4)c(=O)c3c2Br)c1C#N (stereo partly drawn) [Example 74, (3S)-3-[5-bromo-6-[2-cyano-3-[[ethyl(methyl)sulfamoyl]amino]-6-fluorophenoxy]-4-oxoquinazolin-3-yl]-8-[2-[4-[4-[(2,6-dioxopiperidin-3-yl)amino]-2-fluorophenyl]piperidin-1-yl]acetyl]-1-oxa-8-azaspiro[4.5]decane]	
0.0432	8.31	CCN(C)S(=O)(=O)Nc1ccc(F)c(Oc2ccc3ncn([C@H]4COC5(CCN(C(=O)CN6CCC(c7cc(OC)c(NC8CCC(=O)NC8=O)cc7F)CC6)CC5)C4)c(=O)c3c2)c1C#N (stereo partly drawn) [Example 75, (3R)-3-[6-[2-cyano-3-[[ethyl(methyl)sulfamoyl]amino]-6-fluorophenoxy]-4-oxoquinazolin-3-yl]-8-[2-[4-[4-[(2,6-dioxopiperidin-3-yl)amino]-2-fluoro-5-methoxyphenyl]piperidin-1-yl]acetyl]-1-oxa-8-azaspiro[4.5]decane]	
0.0501	13.2	CCN(C)S(=O)(=O)Nc1ccc(F)c(Oc2ccc3ncn([C@H]4COC5(CCN(C(=O)CN6CCCC(c7ccc(NC8CCC(=O)NC8=O)cc7F)CC6)CC5)C4)c(=O)c3c2)c1C#N (stereo partly drawn) [Example 76, (3R)-3-[6-[2-cyano-3-[[ethyl(methyl)sulfamoyl]amino]-6-fluorophenoxy]-4-oxoquinazolin-3-yl]-8-[2-[4-[4-[(2,6-dioxopiperidin-3-yl)amino]-2-fluorophenyl]azepan-1-yl]acetyl]-1-oxa-8-azaspiro[4.5]decane]	
0.0254	12.2	CCN(C)S(=O)(=O)Nc1ccc(F)c(Oc2ccc3ncn(C4COC5(CCN(C(=O)CN6CCC(c7ccc(NC8CCC(=O)NC8=O)cc7F)CC6)CC5)C4)c(=O)c3c2N)c1C#N (stereo not drawn) [Example 81, 3-[5-amino-6-[2-cyano-3-[[ethyl(methyl)sulfamoyl]amino]-6-fluorophenoxy]-4-oxoquinazolin-3-yl]-8-[2-[4-[4-[(2,6-dioxopiperidin-3-yl)amino]-2-fluorophenyl]piperidin-1-yl]acetyl]-1-oxa-8-azaspiro[4.5]decane]	
0.00997	9.26	CCN(C)S(=O)(=O)Nc1ccc(F)c(Oc2ccc3ncn(-c4cnc(N5CCN(C(=O)CN6CCC(c7ccc(NC8CCC(=O)NC8=O)cc7F)CC6)CC5)nc4)c(=O)c3c2)c1C#N (stereo not drawn) [Example 84, 6-[2-cyano-3-[[ethyl(methyl)sulfamoyl]amino]-6-fluorophenoxy]-3-[2-[4-[2-[4-[4-[(2,6-dioxopiperidin-3-yl)amino]-2-fluorophenyl]piperidin-1-yl]acetyl]piperazin-1-yl]pyrimidin-5-yl]-4-oxoquinazoline]	
0.0158	11	CCN(C)S(=O)(=O)Nc1ccc(F)c(Oc2ccc3ncn(-c4ccc(N5CCN(C(=O)CN6CCC(c7ccc(NC8CCC(=O)NC8=O)cc7F)CC6)CC5)nc4)c(=O)c3c2)c1C#N (stereo not drawn) [Example 85, 6-[2-cyano-3-[[ethyl(methyl)sulfamoyl]amino]-6-fluorophenoxy]-3-[6-[4-[2-[4-[4-[(2,6-dioxopiperidin-3-yl)amino]-2-fluorophenyl]piperidin-1-yl]acetyl]piperazin-1-yl]pyridin-3-yl]-4-oxoquinazoline]	
0.00828	12.9	CCN(C)S(=O)(=O)Nc1ccc(F)c(Oc2ccc3ncn(-c4cnc(N5CCN(C(=O)CN6CCC(c7ccc(NC8CCC(=O)NC8=O)cc7F)CC6)CC5)nc4)c(=O)c3c2F)c1C#N (stereo not drawn) [Example 86, 6-[2-cyano-3-[[ethyl(methyl)sulfamoyl]amino]-6-fluorophenoxy]-3-[2-[4-[2-[4-[4-[(2,6-dioxopiperidin-3-yl)amino]-2-fluorophenyl]piperidin-1-yl]acetyl]piperazin-1-yl]pyrimidin-5-yl]-5-fluoro-4-oxoquinazoline]	
0.0303	10.1	CCN(C)S(=O)(=O)Nc1ccc(F)c(Oc2ccc3ncn(-c4ccc(N5CCN(C(=O)CN6CCC(c7c(F)cc(NC8CCC(=O)NC8=O)cc7OC)CC6)CC5)nc4)c(=O)c3c2)c1C#N (stereo not drawn) [Example 87, 6-[2-cyano-3-[[ethyl(methyl)sulfamoyl]amino]-6-fluorophenoxy]-3-[6-[4-[2-[4-[4-[(2,6-dioxopiperidin-3-yl)amino]-2-fluoro-6-methoxyphenyl]piperidin-1-yl]acetyl]piperazin-1-yl]pyridin-3-yl]-4-oxoquinazoline]	

Compound	DC50 (A375.10 cells, 24 h) [µM]	Emax [1] [%]	Emax [%]
CCN(C)S(=O)(=O)Nc1ccc(F)c(Oc2ccc3ncn([C@H]4CCC5(CCN(C(=O)CN6CCC(c7ccc(NC8CCC(=O)NC8=O)c(F)c7F)CC6)CC5)C4)c(=O)c3c2)c1C#N (stereo partly drawn) [Example 63, 6-[2-cyano-3-[[ethyl(methyl)sulfamoyl]amino]-6-fluorophenoxy]-3-[(3S)-8-[2-[4-[4-[(2,6-dioxopiperidin-3-yl)amino]-2,3-difluorophenyl]piperidin-1-yl]acetyl]-8-azaspiro[4.5]decan-3-yl]-4-oxoquinazoline]	0.0204		9.52
CCN(C)S(=O)(=O)Nc1ccc(F)c(Oc2ccc3ncn([C@H]4CCC5(CCN(C(=O)CN6CCC(c7cc(F)c(NC8CCC(=O)NC8=O)cc7F)CC6)CC5)C4)c(=O)c3c2)c1C#N (stereo partly drawn) [Example 67, 6-[2-cyano-3-[[ethyl(methyl)sulfamoyl]amino]-6-fluorophenoxy]-3-[(3S)-8-[2-[4-[4-[(2,6-dioxopiperidin-3-yl)amino]-2,5-difluorophenyl]piperidin-1-yl]acetyl]-8-azaspiro[4.5]decan-3-yl]-4-oxoquinazoline]	0.00531		8.05
